System: not given
Assay: not given
Settings: not given
With `Cc1ccc(O)c(Cn2c(NC3CCN(CCN)CC3)nc3ccc(C=Cc4ccccc4)cc32)n1.Cl` (hydrate or solvate) [Compound 146, 2-{2-[1-(2-Amino-ethyl)-piperidin-4-ylamino]-6-styryl-benzoimidazol-1-ylmethyl}-6-methyl-pyridin-3-ol hydrochloride salt] the melting point was greater than 260 °C. Work on `Cc1cccc(CNc2ccc3nc(NC4CCN(C)CC4)n(Cc4nc(C)ccc4O)c3c2)c1` [Compound 28, 6-methyl-2-[6-(3-methyl-benzylamino)-2-(1-methyl-piperidin-4-ylamino)-benzoimidazol-1-ylmethyl]-pyridin-3-ol] yielded a melting point of 240 °C. `Cc1cccc(SCc2ccc3nc(NC4CCN(C)CC4)n(Cc4nc(C)ccc4O)c3c2)c1` [Compound 93, 6-methyl-2-[2-(1-methyl-piperidin-4-ylamino)-6-m-tolylsulfanylmethyl-benzoimidazol-1-ylmethyl]-pyridin-3-ol] showed a melting point of 202 °C. In the case of `Cc1cccc(C(N)c2ccc3nc(NC4CCN(CCO)CC4)n(Cc4nc(C)ccc4O)c3c2)c1` (stereo not drawn) [Compound 148, 2-[2-[1-(2-hydroxy-ethyl)-piperidin-4-ylamino]-6-(m-tolyl-amino-methyl)-benzoimidazol-1-ylmethyl]-6-methyl-pyridin-3-ol], the melting point is reported as 137 °C.

System: Respiratory Syncytial Virus
Assay: In vitro screening for activity against Respiratory Syncytial Virus (MTT tetrazolium colorimetric assay, HeLa cells)
Format: cell-based
Settings: activity category; protection against RSV cytopathology in HeLa cells, 7 days after infection
Text: The percent protection against cytopathology caused by viruses (antiviral activity or EC50) achieved by tested compounds and their cytotoxicity (CC50) are both calculated from dose-response curves. The selectivity of the antiviral effect is represented by the selectivity index (SI), calculated by dividing the CC50 (cytotoxic dose for 50% of the cells) by the EC50 (antiviral activity for 50% of the cells). The tables in the above experimental part list the category to which each of the prepared compounds belong. Compounds belonging to activity category “A” have an pEC50 (−log of EC50 when expressed in molar units) equal to or more than 7. Compounds belonging to activity category “B” have a pEC50 value between 6 and 7.
Automated tetrazolium-based […] assays were used for determination of EC50 and CC50 of test compounds. Flat-bottom, 96-well plastic microtiter trays were filled with 180 μl of Eagle's Basal Medium, supplemented with 5% FCS (0% for FLU) and 20 mM Hepes buffer. Subsequently, stock solutions (7.8× final test concentration) of compounds were added in 45 μl volumes to a series of triplicate wells so as to allow simultaneous evaluation of their effects on virus- and mock-infected cells. Five five-fold dilutions were made directly in the microtiter trays using a robot system. Untreated virus controls, and HeLa cell controls were included in each test. Approximately 100 TCID50 of Respiratory Syncytial Virus was added to two of the three rows in a volume of 50 μl. The same volume of medium was added to the third row to measure the cytotoxicity of the compounds at the same concentrations as those used to measure the antiviral activity. After two hours of incubation, a suspension (4×10^5 cells/ml) of HeLa cells was added to all wells in a volume of 50 μl. The cultures were incubated at 37° C. in a 5% CO2 atmosphere. Seven days after infection the cytotoxicity and the antiviral activity was examined spectrophotometrically. To each well of the microtiter tray, 25 μl of a solution of MTT (3-(4,5-dimethylthiazol-2-yl)-2,5-diphenyltetrazolium bromide) was added. The trays were further incubated at 37° C. for 2 hours, after which the medium was removed from each cup. Solubilization of the formazan crystals was achieved by adding 100 μl 2-propanol. Complete dissolution of the formazan crystals were obtained after the trays have been placed on a plate shaker for 10 min. Finally, the absorbances were read in an eight-channel computer-controlled photometer (Multiskan MCC, Flow Laboratories) at two wavelengths (540 and 690 nm). The absorbance measured at 690 nm was automatically subtracted from the absorbance at 540 nm, so as to eliminate the effects of non-specific absorption.
In the case of `CCOC(=O)c1ccc2nc(NC3CCNCC3)n(Cc3nc(C)ccc3O)c2c1` [Compound 141], the Activity is reported as “C (pEC50 value equal to or below 6)”. For `CCOC(=O)c1ccc2nc(NC3CCN(Cc4ccccc4)CC3)n(Cc3nc(C)ccc3O)c2c1` [Compound 142], the Activity was “C (pEC50 value equal to or below 6)”.

Same assay, conditions: human respiratory syncytial virus, 168 h; protection against RSV cytopathology in HeLa cells, 7 days after infection; pEC50 = −log of EC50 in molar units
With `Cc1cccc(CNc2ccc3nc(NC4CCN(C)CC4)n(Cc4nc(C)ccc4O)c3c2)c1` [Compound 28, 6-methyl-2-[6-(3-methyl-benzylamino)-2-(1-methyl-piperidin-4-ylamino)-benzoimidazol-1-ylmethyl]-pyridin-3-ol] the EC50 was 15.8 nM. For `Cc1cccc(SCc2ccc3nc(NC4CCN(C)CC4)n(Cc4nc(C)ccc4O)c3c2)c1` [Compound 93, 6-methyl-2-[2-(1-methyl-piperidin-4-ylamino)-6-m-tolylsulfanylmethyl-benzoimidazol-1-ylmethyl]-pyridin-3-ol], the EC50 was 251 nM.

Same assay, conditions: protection against RSV cytopathology in HeLa cells, 7 days after infection; pEC50 = −log of EC50 in molar units
In the case of `Cc1ccc(O)c(Cn2c(NC3CCN(C)CC3)nc3cc(C(=O)NCc4ccco4)ccc32)n1` [Compound 118], the Activity is reported as 4.9. With `Cc1ccc(O)c(Cn2c(NC3CCN(C)CC3)nc3ccc(C(=O)NCc4ccco4)cc32)n1` [Compound 119] the Activity was 4.8. `Cc1ccc(O)c(Cn2c(NC3CCN(C)CC3)nc3cc(C(=O)NCCc4ccccc4)ccc32)n1` [Compound 120] gave an Activity of 4.6. With `Cc1ccc(O)c(Cn2c(NC3CCN(C)CC3)nc3cc(CO)ccc32)n1` [Compound 122] the Activity was less than 4. `Cc1ccc(/C=C/c2ccc3c(c2)nc(NC2CCN(C)CC2)n3Cc2nc(C)ccc2O)cc1` [Compound 125] showed an Activity of less than 4. Molecule `Cc1ccc(O)c(Cn2c(NC3CCN(C)CC3)nc3ccc(/C=C/c4ccc(Cl)cc4)cc32)n1` [Compound 126] has an Activity of less than 4. Work on `Cc1ccc(O)c(Cn2c(NC3CCN(C)CC3)nc3cc(/C=C/c4ccc(Cl)cc4)ccc32)n1` [Compound 127] yielded an Activity of less than 4. Work on `Cc1ccc(/C=C/c2ccc3nc(NC4CCN(C)CC4)n(Cc4nc(C)ccc4O)c3c2)cc1` [Compound 128] yielded an Activity of less than 4. Work on `Cc1cccc(NCc2ccc3c(c2)nc(NC2CCN(C)CC2)n3Cc2nc(C)ccc2O)c1` [Compound 130] yielded an Activity of 4.6. With `Cc1ccc(O)c(Cn2c(NC3CCN(C)CC3)nc3cc(CNc4ccccc4)ccc32)n1` [Compound 131] the Activity was less than 4. In the case of `Cc1cccc(SCc2ccc3c(c2)nc(NC2CCN(C)CC2)n3Cc2nc(C)ccc2O)c1` [Compound 132], the Activity is reported as less than 4. `Cc1ccc(O)c(Cn2c(NC3CCN(C)CC3)nc3ccc(C(=O)NCc4ccccn4)cc32)n1` [Compound 134] gave an Activity of less than 4. For `Cc1ccc(O)c(Cn2c(NC3CCN(C)CC3)nc3cc(C(=O)NCc4ccccn4)ccc32)n1` [Compound 135], the Activity was less than 4. For `Cc1ccc(O)c(Cn2c(NC3CCN(C)CC3)nc3ccc(C(=O)NCCc4ccccc4)cc32)n1` [Compound 136], the Activity was less than 4. With `Cc1ccc(O)c(Cn2c(NC3CCN(C)CC3)nc3ccc(CN(CCC#N)CCC#N)cc32)n1` [Compound 137] the Activity was less than 4. `CCOC(=O)c1ccc2c(c1)nc(NC1CCNCC1)n2Cc1nc(C)ccc1O` [Compound 139] showed an Activity of 5.1. In the case of `CCOC(=O)c1ccc2c(c1)nc(NC1CCN(Cc3ccccc3)CC1)n2Cc1nc(C)ccc1O` [Compound 140], the Activity is reported as less than 4. For `Cc1cccc(/C=C/c2ccc3c(c2)nc(NC2CCN(CCN)CC2)n3Cc2nc(C)ccc2O)c1.Cl` [Compound 147], the Activity was 8.8. Work on `Cc1cc(C)cc(NCc2ccc3nc(NC4CCN(CCO)CC4)n(Cc4nc(C)ccc4O)c3c2)c1` [Compound 149] yielded an Activity of 8.8. For `Cc1cccc(NCc2ccc3nc(NC4CCN(CCCO)CC4)n(Cc4nc(C)ccc4O)c3c2)c1` [Compound 156], the Activity was 8.4. In the case of `Cc1ccc(O)c(Cn2c(NC3CCN(CCN)CC3)nc3cc(CCc4ccccc4)ccc32)n1.Cl` [Compound 157], the Activity is reported as 7.9. Molecule `Cc1cccc(CCc2ccc3c(c2)nc(NC2CCN(CCN)CC2)n3Cc2nc(C)ccc2O)c1.Cl` [Compound 158] has an Activity of 7.9. `Cc1ccc(O)c(Cn2c(NC3CCN(CCO)CC3)nc3ccc(CNc4cccc(O)c4)cc32)n1` [Compound 159] gave an Activity of 7.9. `Cc1ccc(O)c(Cn2c(NC3CCN(CCO)CC3)nc3ccc(CCC#N)cc32)n1` [Compound 161] showed an Activity of 7.8. Molecule `Cc1ccc(O)c(Cn2c(NC3CCN(CCO)CC3)nc3ccc(CCc4ccccc4)cc32)n1` [Compound 162] has an Activity of 7.5. `Cc1ccc(O)c(Cn2c(NC3CCN(CCC(N)=O)CC3)nc3ccc(CCc4ccccc4)cc32)n1` [Compound 163] showed an Activity of 7.2. Molecule `Cc1cc(C)cc(NCc2ccc3nc(NC4CCN(Cc5ccccc5)CC4)n(Cc4nc(C)ccc4O)c3c2)c1` [Compound 164] has an Activity of 7.2. With `Cc1ccc(O)c(Cn2c(NC3CCN(Cc4ccccc4)CC3)nc3ccc(CNc4cc(Cl)cc(Cl)c4)cc32)n1` [Compound 165] the Activity was 7.1. Work on `Cc1ccc(O)c(Cn2c(NC3CCN(CCC(N)=O)CC3)nc3cc(C=Cc4ccccc4)ccc32)n1` [Compound 166] yielded an Activity of 6.8. `Cc1cccc(NCc2ccc3nc(NC4CCN(Cc5ccccc5)CC4)n(Cc4nc(C)ccc4O)c3c2)c1` [Compound 167] showed an Activity of 6.8. `Cc1ccc(O)c(Cn2c(NC3CCN(CCO)CC3)nc3cc(CCc4ccccc4)ccc32)n1` [Compound 168] showed an Activity of 6.6. `Cc1ccc(O)c(Cn2c(NC3CCN(CCO)CC3)nc3ccc(C=Cc4ccccc4)cc32)n1` [Compound 169] gave an Activity of 6.6. Work on `Cc1ccc(O)c(Cn2c(NC3CCN(CCC(N)=O)CC3)nc3cc(CCc4ccccc4)ccc32)n1` [Compound 170] yielded an Activity of 5.7. Molecule `Cc1cc(C)cc(NCc2cc(C)c3nc(NC4CCN(CCO)CC4)n(Cc4nc(C)ccc4O)c3c2)c1` [Compound 172] has an Activity of 8.5. `Cc1cc(C)cc(NCc2ccc3c(c2)nc(NCCCN2CCCCC2)n3Cc2nc(C)ccc2O)c1` [Compound 176] gave an Activity of 7.2. With `Cc1ccc(O)c(Cn2c(NCCCN3CCCCC3)nc3ccc(CO)cc32)n1` [Compound 177] the Activity was 7.1. Molecule `Cc1ccc(O)c(Cn2c(NCCCN3CCN(C)CC3)nc3ccc(CO)cc32)n1` [Compound 178] has an Activity of 6.5. With `Cc1cc(C)cc(NCc2ccc3c(c2)nc(NCCCN2CCN(C)CC2)n3Cc2nc(C)ccc2O)c1` [Compound 179] the Activity was 6.2. `Cc1cc(C)cc(NCc2ccc3c(c2)nc(NCC(O)CO)n3Cc2nc(C)ccc2O)c1` (stereo not drawn) [Compound 180] gave an Activity of 5.6. Work on `Cc1ccc(O)c(Cn2c(NCCCN3CCCCC3)nc3cc(CO)ccc32)n1` [Compound 182] yielded an Activity of 5. For `Cc1ccc(O)c(Cn2c(NCCCN3CCN(C)CC3)nc3cc(CO)ccc32)n1` [Compound 183], the Activity was 5. In the case of `Cc1cc(C)cc(NCc2ccc3nc(NCC4COC(C)(C)O4)n(Cc4nc(C)ccc4O)c3c2)c1` (stereo not drawn) [Compound 184], the Activity is reported as less than 4. `Cc1ccc(O)c(Cn2c(NCCc3ccccc3)nc3cc(CO)ccc32)n1` [Compound 185] showed an Activity of less than 4. Work on `Cc1cc(C)cc(NCc2ccc3c(c2)nc(NCCc2ccccc2)n3Cc2nc(C)ccc2O)c1` [Compound 186] yielded an Activity of less than 4. Molecule `Cc1cc(C)cc(NCc2ccc3nc(NCCc4ccccc4)n(Cc4nc(C)ccc4O)c3c2)c1` [Compound 187] has an Activity of less than 4. With `Cc1ccc(O)c(Cn2c(NCCc3ccccc3)nc3ccc(CO)cc32)n1` [Compound 188] the Activity was 4.4. For `COc1ccc(CCNc2nc3cc(CO)ccc3n2Cc2nc(C)ccc2O)cc1` [Compound 189], the Activity was less than 4. `COc1ccc(CCNc2nc3cc(CNc4cc(C)cc(C)c4)ccc3n2Cc2nc(C)ccc2O)cc1` [Compound 191] showed an Activity of less than 4. In the case of `Cc1ccc(O)c(Cn2c(NCCc3ccccc3)nc3ccc(CNc4cc(Cl)cc(Cl)c4)cc32)n1` [Compound 192], the Activity is reported as less than 4.
